What was measured:
[1] = molecular target: T1, β1-receptors of the heart (Canis lupus familiaris, UniProt P79148); assay: Blocking of Isoproterenol-induced increase of maximum rate of left-ventricular pressure rise (Dp/dt max.) in anaesthetised dogs (β1-receptor inhibition); type: in vivo, mongrel dogs; settings: for ED50: dog, intravenous, 50 % inhibition of reaction to Isoproterenol 0.5 gamma/kg i.v., anaesthetised dogs, read-out: β1-receptor inhibition ED 50; for Relative β1-receptor inhibition (reference substance = 100): relative ED 50, Practolol = 100, lower = more active; for Quotient: ED 50 β2-receptor inhibition / ED 50 β1-receptor inhibition: measure of cardioselective action, higher = better; for Quotient, on basis of reference substance = 1: relative cardioselectivity factor, Practolol = 1
T1 construct: from tissue; host or cells: heart (left ventricle) of the living anaesthetised mongrel dog
Method: (§1) The blocking action of the compounds according to the invention on the β1-receptors of the heart and on the β2-receptors of the cardiovascular system was investigated as follows: the blood pressure in the left-hand ventricle was measured on mongrel dogs of both sexes under anaesthesia by Chloralose-urethane-morphine and the pressure signal was continuously differentiated by means of an analogue computer (BRUSH Instruments, Cleveland/Ohio) and, inter alia, the rate of pressure increase (Dp/dt) was recorded. In addition, the perfusion of a femoral artery was measured by means of an electromagnetic flow meter (Model […] of Messrs. Statham) and the perfusion was recorded in ml/minutes. […] DUNLOP and […]: Selective blockade of adrenoceptive beta-receptors in the heart. Brit. J. Pharmac. Chemother. (1968) 32, 201-218). The substances to be tested for β-receptor blocking were administered intravenously in increasing dosages to the animals, which had been anaesthetised and stimulated by means of Isoproterenol, and the quantity of substance was determined at which a 50 % inhibition of the two reactions caused by Isoproterenol occurred (ED50). […] The higher this quotient is, the better the cardioselective action.

[2] = molecular target: T2, β2-receptors of the cardiovascular system (Canis lupus familiaris, UniProt P54833); assay: Blocking of Isoproterenol-induced alteration of peripheral perfusion of the femoral artery in anaesthetised dogs (β2-receptor inhibition); type: in vivo, mongrel dogs; settings: for ED50: dog, intravenous, 50 % inhibition of reaction to Isoproterenol 0.05 gamma/kg intra-arterial, anaesthetised dogs, read-out: β2-receptor inhibition ED 50; for Relative β2-receptor inhibition (reference substance = 100): relative ED 50, Practolol = 100
T2 construct: from tissue; host or cells: femoral vascular bed of the living anaesthetised mongrel dog
Method: as §1

T1 sequence (P79148 whole entry): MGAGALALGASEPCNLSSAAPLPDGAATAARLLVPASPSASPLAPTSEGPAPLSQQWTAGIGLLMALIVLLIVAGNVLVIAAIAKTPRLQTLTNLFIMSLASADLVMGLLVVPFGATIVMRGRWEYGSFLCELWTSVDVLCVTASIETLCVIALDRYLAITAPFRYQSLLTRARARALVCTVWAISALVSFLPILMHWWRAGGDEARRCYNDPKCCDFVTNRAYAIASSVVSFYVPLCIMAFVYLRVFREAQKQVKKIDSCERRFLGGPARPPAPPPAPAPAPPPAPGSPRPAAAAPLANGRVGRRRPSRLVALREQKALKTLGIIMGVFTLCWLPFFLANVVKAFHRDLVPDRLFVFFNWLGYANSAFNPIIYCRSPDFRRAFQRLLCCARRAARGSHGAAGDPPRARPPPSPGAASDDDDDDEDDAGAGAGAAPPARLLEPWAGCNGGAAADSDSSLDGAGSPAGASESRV
T2 sequence (P54833 whole entry, the tested form may be a part): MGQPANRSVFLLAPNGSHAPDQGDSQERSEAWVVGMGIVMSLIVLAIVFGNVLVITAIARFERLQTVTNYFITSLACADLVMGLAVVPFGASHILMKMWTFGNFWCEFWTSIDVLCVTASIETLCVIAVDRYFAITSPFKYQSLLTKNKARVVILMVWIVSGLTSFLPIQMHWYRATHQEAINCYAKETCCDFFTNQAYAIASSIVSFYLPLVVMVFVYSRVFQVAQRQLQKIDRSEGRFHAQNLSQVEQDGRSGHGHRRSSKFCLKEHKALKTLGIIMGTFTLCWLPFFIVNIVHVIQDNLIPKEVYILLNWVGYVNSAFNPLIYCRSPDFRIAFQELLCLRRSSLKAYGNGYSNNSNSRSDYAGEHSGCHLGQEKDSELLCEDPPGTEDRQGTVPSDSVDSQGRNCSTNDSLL

SMILES: Cc1ccc(C(O)CC(C)NCC(O)COc2ccc(Br)cc2)cn1 (centres unmarked) [1-(4-Bromo-phenoxy)-3-(1-[6-methyl-pyridyl-3]-1-hydroxy-butyl-(3)-amino)-propan-2-ol]
- ED50 [1]: 0.074 mg/kg
- Relative β1-receptor inhibition (reference substance = 100) [1]: 31.1

SMILES: CCCCCOc1ccc(OCC(O)CNC(C)CC(O)c2ccc(C)nc2)cc1 (centres unmarked) [1-(4-n-Pentyloxy-phenoxy)-3-(1-[6-methyl-pyridyl-3]-1-hydroxy-butyl-(3)-amino)-propan-2-ol]
- ED50 [2]: 7.74 mg/kg
- Relative β2-receptor inhibition (reference substance = 100) [2]: 29.2
- ED50 [1]: 0.057 mg/kg
- Quotient: ED 50 β2-receptor inhibition / ED 50 β1-receptor inhibition [1]: 136
- Relative β1-receptor inhibition (reference substance = 100) [1]: 29.9
- Quotient, on basis of reference substance = 1 [1]: 1.2

SMILES: CCCOc1ccc(OCC(O)CNC(C)CC(O)c2ccc(C)nc2)cc1 (centres unmarked) [1-(4-n-Propoxy-phenoxy)-3-(1-[6-methyl-pyridyl-3]-1-hydroxy-butyl-(3)-amino)-propan-2-ol]
- ED50 [2]: 1.8 mg/kg
- Relative β2-receptor inhibition (reference substance = 100) [2]: 6.8
- ED50 [1]: 0.011 mg/kg
- Quotient: ED 50 β2-receptor inhibition / ED 50 β1-receptor inhibition [1]: 171
- Relative β1-receptor inhibition (reference substance = 100) [1]: 4.6
- Quotient, on basis of reference substance = 1 [1]: 1.5

SMILES: CCCCOc1ccc(OCC(O)CNC(C)CC(O)c2ccc(C)nc2)cc1 (centres unmarked) [1-(4n-Butoxy-phenoxy)-3-(1-[6-methyl-pyridyl-3]-1-hydroxy-butyl-(3)-amino)-propan-2-ol]
- ED50 [2]: 32.7 mg/kg
- Relative β2-receptor inhibition (reference substance = 100) [2]: 123.2
- ED50 [1]: 0.067 mg/kg
- Quotient: ED 50 β2-receptor inhibition / ED 50 β1-receptor inhibition [1]: 487
- Relative β1-receptor inhibition (reference substance = 100) [1]: 28.2
- Quotient, on basis of reference substance = 1 [1]: 4.4

SMILES: CC(=O)Nc1ccc(OCC(O)CNC(C)CC(O)c2ccc(C)nc2)cc1 (centres unmarked) [1-(p-Acetamino-phenoxy)-3-(1-[6-methyl-pyridyl-3]-1-hydroxy-butyl-(3)-amino)-propan-2-ol]
- ED50 [2]: 1.99 mg/kg
- Relative β2-receptor inhibition (reference substance = 100) [2]: 7.5
- ED50 [1]: 0.012 mg/kg
- Quotient: ED 50 β2-receptor inhibition / ED 50 β1-receptor inhibition [1]: 165
- Relative β1-receptor inhibition (reference substance = 100) [1]: 5.04
- Quotient, on basis of reference substance = 1 [1]: 1.5

SMILES: CC(=O)Nc1ccc(OCC(O)CNC(C)C)cc1 (centres unmarked) [4-(2-Hydroxy-3-isopropylamino-propoxy)-acetanilide, reference compound]
- ED50 [2]: 26.5 mg/kg
- Relative β2-receptor inhibition (reference substance = 100) [2]: 100
- ED50 [1]: 0.238 mg/kg
- Quotient: ED 50 β2-receptor inhibition / ED 50 β1-receptor inhibition [1]: 110
- Relative β1-receptor inhibition (reference substance = 100) [1]: 100
- Quotient, on basis of reference substance = 1 [1]: 1

Reference: patent US3969363A, “Derivatives of 1-phenoxy-3-amino-propan-2-ol and process for their production” (Cassella Farbwerke Mainkur Aktiengesellschaft, priority 1973, dated 1976)
